{"source": "patent US9657351B2", "about": "“MRNA-based gene expression for personalizing patient cancer therapy with an MDM2 antagonist” (Hoffmann-La Roche Inc., priority 2013, dated 2017)", "key": {"DU145": {"tested_on": "DU145", "test": "COMPOUND A In Vitro Assay", "format": "cell-based, human", "description": "(§1) To generate an MDM2 antagonist therapy predictive signature, the response of MDM2 antagonist therapy in vitro with gene expression profiling (FIG. 1) is combined. A bank of 287 human cancer cell lines, collectively termed the Cell Lines for Oncology/Chugai ACcumulative Tumour EncycLopedia (CELLO/CACTEL), representing a broad array of diverse human cancer tumor types are subject to evaluation using several high-throughput genomic technology platforms. The mutational status of nucleic acids from each cell line is determined by exome sequencing. Messenger RNA (mRNA) expression levels at baseline, prior to MDM2 antagonist therapy, are obtained via RNA sequencing. MDM2 antagonist therapy COMPOUND A, sometimes referred to herein as RG7112, responses are obtained by assays known to those skilled in the art such as RNA sequencing and microarray measurement using Gene Chip Human Genome U133 Plus 2.0 Array. The MDM2 therapy responses are obtained by high throughout screening assays. Depending on their responses to COMPOUND A these cell lines are classified as either sensitive, defined as IC50<=1, or resistant, defined as IC50>=10.\n(§2) 281 cells are treated with MDM2 antagonists and the IC50 (therapy response) is generated. The cell lines span a broad range of tumor cell types of derivation."}, "KMS-26": {"tested_on": "KMS-26", "test": "COMPOUND A In Vitro Assay", "format": "cell-based, human", "details": "for pIC50: Homo sapiens", "description": "as §1, §2"}, "LCLC-103H": {"tested_on": "LCLC-103H", "test": "COMPOUND A In Vitro Assay", "format": "cell-based, human", "description": "as §1, §2"}, "LN-18": {"tested_on": "LN-18", "test": "COMPOUND A In Vitro Assay", "format": "cell-based, human", "details": "for pIC50: Homo sapiens", "description": "as §1, §2"}, "NCI-H226": {"tested_on": "NCI-H226", "test": "COMPOUND A In Vitro Assay", "format": "cell-based, human", "details": "for pIC50: Homo sapiens", "description": "as §1, §2"}, "PC-9": {"tested_on": "PC-9", "test": "COMPOUND A In Vitro Assay", "format": "cell-based, human", "details": "for pIC50: Homo sapiens", "description": "as §1, §2"}, "SW1463": {"tested_on": "SW1463", "test": "COMPOUND A In Vitro Assay", "format": "cell-based, human", "description": "as §1, §2"}, "[1]": {"tested_on": "4-gene mRNA signature score (MDM2, XPC, BBC3, CDKN2A)", "test": "NO21279 4-gene mRNA signature score on treatment", "format": "in vivo, human", "protocol": "MDM2 mRNA concentrations were assessed at Roche Molecular Systems by quantitative real-time PCR with 50 ng total RNA from MACs isolated leukemia cells from blood. TaqMan (Invitrogen, Carlsbad, Calif., USA) probes were designed to detect MDM2 mRNA and the reference mRNA, beta-glucuronidase, simultaneously using two different fluorescent reporters. Gene expression profiles were generated using Affymetrix U133 Plus 2.0 microarrays. Probset ID's for the each of the four genes on said U133 Plus 2.0 microarray are: 209375_s_at (for XPC); 205386_s_at and 211832_s_at (MDM2); 211692_s_at (BBC3); 207039_at and 211156_at (CDKN2A). The “mRNA expression level” for one of the 4 genes according to the present invention is the accumulation of all counts falling into the range of exons of a gene (e.g. MDM2). […] The predictive patient signature score according to the present invention is then calculated using the following equation: patient signature score=GMDM2+GXPC+GBBC3−GCDKN2A. G in the formula stands for log 2 transformed mRNA expression levels as obtained from patient samples, for example blood leukemia or bone marrow biopsy samples. For example, for the patient data reported in Table 9 (Example 5), G is log 2 of the mRNA probeset expression of the relevant gene as measured with Affymetrix U133 Plus 2.0 microarrays.\nRisk scores are calculated for patients based on their mRNA expression values of the 4 genes at baseline prior to treatment. To ensure a rigorous and an unbiased validation, the compute of the coefficients in the test cohort is not done. However, due to the platform difference and the biological differences between patients and cell lines, in-vitro coefficients for the patient level classifier is not applied."}, "P53": {"tested_on": "P53", "details": "NP22890; at C1D8; as previously reported; cited from earlier work"}, "clinical": {"test": "clinical", "details": "both, human, in vivo, AUC0-24, median"}}, "note": "pIC50: −log10 of the molar value."}
{"smiles": "CCOc1cc(C(C)(C)C)ccc1C1=N[C@@](C)(c2ccc(Cl)cc2)[C@@](C)(c2ccc(Cl)cc2)N1C(=O)N1CCN(CCCS(C)(=O)=O)CC1", "note": "[COMPOUND A]", "values": [{"measurement": "pIC50", "setting": "DU145; Homo sapiens, DU-145, Prostate, TP53 Mutant", "value": 6.00}, {"measurement": "response to COMPOUND A (sensitive / resistant)", "setting": "DU145; TP53 mutant cell line", "value": "sensitive (sensitive, defined as IC50<=1)"}, {"measurement": "pIC50", "setting": "KMS-26; KMS-26, KMS-26, Lymphocyte, TP53 Mutant", "value": 6.35}, {"measurement": "pIC50", "setting": "KMS-26; KMS-26, KMS-26 cells", "value": 6.30}, {"measurement": "response to COMPOUND A (sensitive / resistant)", "setting": "KMS-26; KMS-26, TP53 mutant cell line", "value": "sensitive (sensitive, defined as IC50<=1)"}, {"measurement": "pIC50", "setting": "LCLC-103H; Homo sapiens, Lung, TP53 Mutant", "value": 6.15}, {"measurement": "response to COMPOUND A (sensitive / resistant)", "setting": "LCLC-103H; TP53 mutant cell line", "value": "sensitive (sensitive, defined as IC50<=1)"}, {"measurement": "pIC50", "setting": "LN-18; LN-18, LN-18, Brain, temporal lobe, TP53 Mutant", "value": 6.17}, {"measurement": "pIC50", "setting": "LN-18; LN-18, LN-18 cells", "value": 6.15}, {"measurement": "response to COMPOUND A (sensitive / resistant)", "setting": "LN-18; LN-18, TP53 mutant cell line", "value": "sensitive (sensitive, defined as IC50<=1)"}, {"measurement": "pIC50", "setting": "NCI-H226; NCI-H226, NCI-H226, Lung, TP53 Mutant", "value": 6.89}, {"measurement": "pIC50", "setting": "NCI-H226; NCI-H226, NCI-H226 cells", "value": 7.00}, {"measurement": "response to COMPOUND A (sensitive / resistant)", "setting": "NCI-H226; NCI-H226, TP53 mutant cell line", "value": "sensitive (sensitive, defined as IC50<=1)"}, {"measurement": "pIC50", "setting": "PC-9; PC-9, PC-9, Lung, TP53 Mutant", "value": 6.16}, {"measurement": "pIC50", "setting": "PC-9; PC-9, PC-9 cells", "value": 6.15}, {"measurement": "response to COMPOUND A (sensitive / resistant)", "setting": "PC-9; PC-9, TP53 mutant cell line", "value": "sensitive (sensitive, defined as IC50<=1)"}, {"measurement": "pIC50", "setting": "SW1463; Homo sapiens, Intestine, large, rectum, TP53 Mutant", "value": 6.00}, {"measurement": "response to COMPOUND A (sensitive / resistant)", "setting": "SW1463; TP53 mutant cell line", "value": "sensitive (sensitive, defined as IC50<=1)"}, {"measurement": "median signature score over baseline", "setting": "[1]; C1D2, CR patients, IQR 1.13-1.15", "value": 1.15, "unit": "times"}, {"measurement": "median signature score over baseline", "setting": "[1]; C1D2, HI patients, IQR 1.04-1.10", "value": 1.08, "unit": "times"}, {"measurement": "median signature score over baseline", "setting": "[1]; C1D2, MLFS patients, IQR 1.14-1.19", "value": 1.17, "unit": "times"}, {"measurement": "median signature score over baseline", "setting": "[1]; C1D2, PD patients, IQR 1.05-1.16", "value": 1.11, "unit": "times"}, {"measurement": "median signature score over baseline", "setting": "[1]; C1D10, CR patients, IQR 1.22-1.24", "value": 1.23, "unit": "times"}, {"measurement": "median signature score over baseline", "setting": "[1]; C1D10, HI patients, IQR 1.23-1.30", "value": 1.25, "unit": "times"}, {"measurement": "overall signature score over baseline", "setting": "[1]; C1D10, IQR 1.88-4.23", "value": 3.05, "unit": "times"}, {"measurement": "median signature score over baseline", "setting": "[1]; C1D10, MLFS patients, IQR 1.23-1.31", "value": 1.26, "unit": "times"}, {"measurement": "median signature score over baseline", "setting": "[1]; C1D10, PD patients, IQR 1.08-1.21", "value": 1.14, "unit": "times"}, {"measurement": "P53 concentration change from baseline", "setting": "P53", "value": "significantly increase"}, {"measurement": "AUC(0-t)", "setting": "clinical", "value": 190, "unit": "µg·h/mL"}]}
